# Where no end group is shown, it is not given here.
# System: EGFR
# Experiment: EGFR expression by immunoblotting in Hey cells
# Format: cell-based
# Experimental: Immunoblotting. Hey cells were plated into 6-well plates (5×10^5/well) and allowed to adhere overnight at 37° C., 5% CO2. The cells were lysed with 100 μL of lysis buffer (50 mM Tris-HCl, pH 7.5, 150 mM NaCl, 2 mM EDTA (Fisher), 2 mM EGTA (Fisher), 1 mM sodium orthovanadate, 2.5 mM sodium pyrophosphate, 1 mM β-gycerolphosphate, 1 mM phenylmethanesulfonyl fluoride, 10 μg/mL aprotinin, 10 μg/mL leupeptin, 1% Triton X-100, and 5% glycerol), and the cell lysates sonicated four times for five seconds each. The lysates were cleared by centrifugation at 11,000×g rcf for […] at 4° C. Cell lysates were prepared for analysis by the addition of an equal volume of Laemmli 2× sample buffer. The samples were heated to 95° C. for […] to denature the proteins. The proteins were separated on a 10% SDS-PAGE gel and transferred onto nitrocellulose. The blots were blocked with either 5% nonfat dry milk (NFDM) or 5% bovine serum albumin (BSA) in 10 mM Tris-buffered saline, pH 7.5 plus 1% Tween 20 (TBST, BioRad) for 1 hour at room temperature. The blots were probed with anti-EGFR antibody (Cell Signaling, Danvers, Mass.; cat. no. 4405) or with a β-actin antibody (Millipore, Billerica, Mass.; Mab1501) diluted in 5% NFDM or 5% BSA overnight, with shaking at 4° C. For EphA2 detection, the blots were probed with an anti-EphA2 polyclonal antibody (Santa Cruz Biotechnology, Santa Cruz, Calif.; sc-294). The blots were washed three times with TBST and probed with goat anti-rabbit IgG (Santa Cruz, sc-2004) or with goat anti-mouse IgG (Santa Cruz, sc-2005) linked to horseradish peroxidase (HRP). Bands were visualized on film (Pierce) using the ECL reagent, SuperSignal West Pico™ (Pierce).
# As described above, we chose siRNA targeting EGFR; knockdown of this receptor is non-lethal, but has clinical relevance in the treatment of drug resistant ovarian carcinomas. To determine if we could effectively knockdown EGFR in vitro, EGFR siRNA was encapsulated at a concentration of 16.6 μg of EGFR siRNA/mg of nanogels, using the loading technique described above. […]
substance,measurement,setting,value
YSA-conjugated nanogels: core/shell pNIPMAm nanogels with YSA peptide coupled to shell amines via maleimide (EMCA) (YSAYPDSVPMMSC; also: coupled to nanogel shell amines via maleimide (EMCA)),EGFR expression relative to controls,"Example 1, 4 h incubation, harvested at 48 hours, 1 mg nanogels/5×10^5 cells","small, statistically insignificant decrease"
same,EGFR expression of control treatments compared to untreated cells,Example 2,slight decrease

# — patent US8361510B2, “Nanogels for cellular delivery of therapeutics” (Georgia Tech Research Corporation, priority 2008, dated 2013)
